Experimental data published in patent publication US4963570A, “1-(acetylaminophenyl)-2-aminopropanone derivatives and pharmaceutical compositions thereof” (Laboratoire L. Lafon, priority 1983, dated 1990).
Entries after “also recorded” stand apart in the source; their conditions may differ. Counter-ions that a name gives are not always drawn.

Experiments:
[1] = tested on: mice; test: interaction with reserpine; format: in vivo, mouse; settings: i.p.
Procedure: Four hours after the intraperitoneal injection of 2.5 mg/kg of reserpine, groups of 6 mice receive CRL 41 224.

[2] = tested on: mice; test: interaction with oxotremorine; format: in vivo, mouse; settings: i.p.
Procedure: CRL 41 224 is administered to groups of 6 mice 0.5 hour before the intraperitoneal injection of 0.5 mg/kg of oxotremorine.

[3] = tested on: mice; test: motility reduced by hypoxic aggression; format: in vivo, mouse; settings: i.p.
Procedure: Half an hour after they have received CRL 41 224, the mice (10 per dose, 20 control animals) are subjected to acute hypobaric anoxia [pressure reduction of 600 mm Hg (i.e. about 8×10^4 Pa) in 90 seconds; release of vacuum in 45 seconds] and are then placed in an actimeter, where their motility is recorded for 10 minutes.

[4] = tested on: rats; test: overall behavior and reactivities in rats; format: in vivo, rat; settings: i.p., dose not stated
Procedure: (§1) Groups of three animals are observed before and then 0.25 hour, 0.50 hour, 1 hour, 2 hours, 3 hours and 24 hours after the administration of CRL 41 224.

[5] = tested on: mice; test: interaction with apomorphine in mice; format: in vivo, mouse; settings: i.p.
Procedure: Groups of 6 mice receive CRL 41 224 0.5 hour before the subcutaneous injection of 1 or 16 mg/kg of apomorphine.

[6] = tested on: mice; test: action on the behavioral despair; format: in vivo, mouse; settings: i.p.
From the text: Half an hour after they have received CRL 41 224, groups of 6 mice are placed in a beaker filled with water to a height of 6 cm. The total period of immobility between the 2nd and 6th minutes following immersion is noted.

[7] = tested on: rats; test: interaction with amphetamine; format: in vivo, rat; settings: i.p.
Procedure: Amphetamine (2 mg/kg) is injected intraperitoneally into groups of 6 rats 30 minutes after the administration of CRL 41 224.

[8] = tested on: rats; test: action on stereotypies in rats (α-methyltyrosine, haloperidol, reserpine); settings: i.p.
[9] = tested on: mice; test: interaction with barbital; format: in vivo, mouse; settings: i.p.; dose not stated
Procedure: Half an hour after the administration of CRL 41 224, groups of 10 mice receive an intraperitoneal injection of barbital (220 mg/kg).

[10] = tested on: mice; test: overall behavior and reactivities in mice; format: in vivo, mouse; settings: i.p.
Procedure: as §1

[11] = tested on: mice; test: motility reduced by habituation to the enclosure; format: in vivo, mouse; settings: i.p.
Procedure: After they have stayed in the actimeters for 18 hours, the mice (6 per dose, 12 control animals) receive CRL 41 224. They are immediately returned to their respective enclosures and, half an hour later, their motility is recorded for 30 minutes.

[12] = tested on: mice; test: toxicity to grouped mice compared with isolated mice; format: in vivo, mouse
[13] = tested on: peripheral α-adrenergic stimulation; test: signs of peripheral adrenergic stimulation; format: in vivo, mouse; rat; settings: i.p.; dose not stated
Procedure: as §1

[14] = tested on: mice; test: four plate test, traction and electric shock; format: in vivo, mouse; settings: i.p.
Procedure: The test is performed on groups of 10 mice 30 minutes after the administration of CRL 41 224.

[15] = tested on: mice; test: action on the spontaneous motility (actimeter); format: in vivo, mouse; settings: mice, i.p.; dose not stated
Procedure: 0.5 hour after they have received CRL 41 224, the mice (6 per dose, 12 control animals) are placed in an actimeter, where their motility is recorded for 30 minutes.

[16] = tested on: CNS; test: overall neuropsychopharmacological (CNS) profile; format: in vivo, mouse; rat; settings: i.p.
Procedure: The neuropsychopharmacological study of CRL 41 219 was carried out as indicated above for CRL 41 224.
The neuropsychopharmacological study of CRL 41 220 was carried out in accordance with the procedures given above for CRL 41 224.

[17] = tested on: rats; test: interaction with apomorphine in rats; format: in vivo, rat; settings: i.p., dose not stated
Procedure: CRL 41 224 is administered to groups of 6 rats 0.5 hour before the subcutaneous injection of 0.5 mg/kg of apomorphine.

[18] = tested on: delayed hypersensitivity to the red blood corpuscles of sheep; test: delayed hypersensitivity to the red blood corpuscles of sheep (Miller); format: in vivo
[19] = tested on: male mice; test: acute toxicity, intraperitoneal (lethal doses); format: in vivo, mouse; settings: i.p.
Procedure: By intraperitoneal administration to male mice, the LD-30 (lethal dose for 30% of the animals tested) is of the order of 128 mg/kg and the LD-50 is of the order of about 200 mg/kg.

[20] = tested on: immunological properties; test: immunological properties, overall; format: in vivo; settings: dose not stated
From the text: The present 1-(acetylaminophenyl)-2-aminopropanone derivatives are useful in therapy. They all act on the CNS, more precisely as antidepressants. They have a stimulant or excitant component in their neuropsychopharmacological profile.

[21] = tested on: spleen cells expressing a direct IgM antibody response; test: test for cells forming lysis areas (PFC IgM, Cunningham); format: in vivo, mouse; settings: 0.1, 10 and 100 mg/kg
Procedure: Immunological assays were carried out in order to point out the interest of CRL 41 240 as an immunomodulating agent. Specifically, the test used was the so-called test for cells forming lysis areas, described by A. J. […] et al. ("Further improvements in the plaque technique for detecting simple antibody forming cells"), Immunology 14, pages 599-601 (1968).
The test for cells forming lysis areas (or PFC IgM) explores the humoral immunity. Four days after immunization with a T-dependent antigen (in this case red blood corpuscles of sheep), the spleen cells expressing a direct IgM antibody response are counted. The mice used for this purpose are conventional female OF1 mice devoid of specific pathogenic organisms, weighing from 20 to 30 g and divided up into a control group of 14 animals and groups each containing 7 animals per dose and per product to be studied, administered orally on the same day as the antigen. An activity index I is calculated for each dose of product according to the following equation: [formula]
This test is performed at least twice for each dose of test product [C(control amimals), 0.01, 0.1, 10 and 100 mg/kg] and a statistical study is undertaken using the Student t test after variance analysis on the number of lyses per spleen.

[22] = tested on: male mice; test: influence of catecholamines on hyperactivity in mice; format: in vivo, mouse; settings: I.V.C., 10 μg
Procedure: A further series of assays was carried out on mice according to the teaching of S. L. HANDLEY et al. "Influences of catecholamines on dexamphetamine, induced changes in locomotor activity", Psychopharmacology 58, 283-288 (1978), in order to observe a potential influence of dopamine or moradrenaline on the hyperactivity induced by CRL 41 152.
After a habituation period of 1.5 h to the actimeters, male mice (grouped into batches of 10 animals each and a control batch of 20 animals) were administered (under slight anesthesia with ether) per intraventriculocerebral injection (i.e. I.V.C. route) with (i) either 10 μg of noradrenaline, or 10 μg of dopamine or 10 μl (0.5 μl/second) of saline solution, then (ii) 5 minutes later, with CRL 41 152 (in solution in distilled water) per I.P. route in a volume of 20 ml/kg, immediately before replacing the mice in the actimeters vherein their motility was recorded for 1 hour by measuring the number of crossed rays per period of 5 minutes).
Batches receiving CRL 41 152 per I.P. route with noradreanaline or dopamine per I.V.C. route were compared with (i) the control batch receiving the saline solution per I.V.C. route then distilled water per I.P. route, and (ii) batches receiving only noradrenaline, dopamine (per I.V.C. route) or CRL 41 152 (per I.P. route).

[23] = tested on: dogs; test: cardiovascular action in anesthetized dogs; format: in vivo, dog; settings: control dogs, noradrenaline alone
Procedure: Four dogs (average weight: 13.8 kg), anesthetized with nembutal, receive CRL 41 220 by intraduodenal administration at successive doses of 0.1 mg/kg, 0.5 mg/kg, 1 mg/kg, 2.5 mg/kg, 5 mg/kg and 10 mg/kg. The blood pressure, the heart beat, the flow rate through the femoral artery, the flow rate through the vertebral artery and the rectal and/or skin temperature are measured and the coloration of the skin and the bile (collected by catheterization of the bile duct after ligature of the cystic duct) is observed.

## CCCNC(C)C(=O)c1ccc(NC(C)=O)cc1 (centres unmarked) [CRL 41 212]
[1]; dose not stated
  hypothermia induced by reserpine: antagonism of the hypothermia induced by apomorphine, oxotremorine or reserpine
  ptosis induced by reserpine: antagonism of the ptosis induced by reserpine
[2]; dose not stated
  hypothermia induced by oxotremorine: antagonism of the hypothermia induced by apomorphine, oxotremorine
  trembling caused by oxotremorine: antagonism of the trembling caused by oxotremorine
[3]; dose not stated
  motor recovery after hypoxic aggression: an improvement in the motor recovery in mice after acute hypoxia
[4]
  stereotype movements in rats: stereotype movements in rats
[5]; dose not stated
  hypothermia induced by apomorphine: antagonism of the hypothermia induced by apomorphine
[6]; dose not stated
  period of immobility or "despair": a reduction in the immobility
[7]; rats, dose not stated
  stereotypies induced by amphetamine: potentiation of the stereotypies induced by apomorphine or amphetamine
[8]
  suppression of induced stereotype movements by prior injection of alpha-methyltyrosine: not suppressed
[9]
  sleep induced by barbital: antagonism of the sleep induced by barbital
[10]; mice, dose not stated
  excitation in mice: excitation with hyperreactivity in mice
[11]; dose not stated
  motor activity after habituation to the enclosure: a resumption in the motor activity of mice accustomed to their enclosure
[12]
  toxicity to grouped mice compared with isolated mice: do not increase the toxicity to grouped mice
[13]
  exophthalmos: absent
  mydriasis: mydriasis
  peripheral adrenergic stimulation, overall: effects which may reflect peripheral adrenergic stimulation
  salivation: absent
[14]; dose not stated
  convulsant effects of electric shock: anticonvulsant effects
[15]
  spontaneous motility / motor activity: an increase in the spontaneous motility in mice
[16]; mice and rats, dose not stated
  overall action on the CNS: stimulant effects; also recorded: antidepressant effects
[17]
  stereotypies induced by apomorphine: potentiation of the stereotypies induced by apomorphine

## CC(=O)Nc1ccc(C(=O)C(C)N2CCSCC2)cc1 (centres unmarked) [CRL 41 247]
[1]; strong doses
  hypothermia induced by reserpine: no antagonism towards the hypothermia induced by reserpine
[2]; strong/high doses
  hypothermia induced by oxotremorine: very moderate antagonism of the hypothermia induced by apomorphine and oxotremorine
[3]; strong doses
  motor activity after acute hypoxia: an increase in the motor activity of mice after habituation to their enclosure and after acute hypoxia
[5]; strong doses
  hypothermia induced by apomorphine: very moderate antagonism of the hypothermia induced by apomorphine
[6]; strong/high doses
  period of immobility of mice forcibly immersed: a reduction in the period of immobility
[18]; dose not stated
  cell activity (technique of Miller et al.): stimulates cell activity
[7]; strong doses
  stereotypies induced by amphetamine: potentiation of the stereotypies induced by amphetamine
[10]; 256 mg/kg, 30 minutes after administration
  hypothermia, temperature change: -3.3 °C
[10]; strong/high doses
  body temperature (hypothermia): hypothermia
[11]; strong doses
  motor activity after habituation to the enclosure: an increase in the motor activity of mice after habituation to their enclosure
[19]
  LD-0 (maximum non-lethal dose): greater than 512 mg/kg
  LD-60: about 1000 mg/kg
[14]; strong/high dose
  convulsant effects of electric shock: a reduction in the convulsant effects of electric shock
[20]
  immunological properties, overall: beneficial immunomodulating effects
[16]; strong/high doses
  overall action on the CNS: discreet antidepressant effects; also recorded: stimulant effects

## CC(=O)Nc1cccc(C(=O)C(C)N2CCCCC2)c1 (centres unmarked) [CRL 41 262, 1-(3-acetylaminophenyl)-2-piperidinopropanone hydrochloride]
[18]; oral, 10 and 100 mg/kg
  immunostimulant activity, delayed hypersensitivity: immunostimulant activity
[21]
  immunostimulant activity, PFC IgM test: immunostimulant activity
[20]; hydrochloride
  immunological properties, overall: beneficial immunomodulating effects; also recorded: particularly valuable as an immunomodulator
[16]; mice and rats, dose not stated
  overall action on the CNS: antidepressant and stimulant effects on the CNS

## NCCc1ccc(O)c(O)c1 [dopamine, reference compound]
[22]
  locomotor effect by comparison with saline: did not cause any visible locomotor effect

## NC[C@H](O)c1ccc(O)c(O)c1 [noradrenaline, reference compound]
[23]
  systolic blood pressure with 2 μg/kg of noradrenaline, control animals: 323 mm Hg
[22]
  locomotor effect by comparison with saline: did not cause any visible locomotor effect
